Measurements reported in patent publication US11999737B2, “Kinase inhibitors and related methods of use” (Duke University, priority 2014, dated 2024).
pKd: −log10 of the molar value.

Legend:
GFP-ZIPK = GFP-ZIPK (Homo sapiens, UniProt O43293); test: FLECS elution of GFP-ZIPK from γ-linked ATP Sepharose media; type: binding; conditions: titration from ATP Sepharose
PIM3-GFP = PIM3-GFP (Homo sapiens, UniProt Q86V86); test: FLECS elution of PIM3-GFP from γ-linked ATP Sepharose media; type: binding; conditions: titration from ATP Sepharose; calculated from EC50; read-out: apparent Kd, elution of PIM3-GFP

Chain of GFP-ZIPK (O43293 whole entry): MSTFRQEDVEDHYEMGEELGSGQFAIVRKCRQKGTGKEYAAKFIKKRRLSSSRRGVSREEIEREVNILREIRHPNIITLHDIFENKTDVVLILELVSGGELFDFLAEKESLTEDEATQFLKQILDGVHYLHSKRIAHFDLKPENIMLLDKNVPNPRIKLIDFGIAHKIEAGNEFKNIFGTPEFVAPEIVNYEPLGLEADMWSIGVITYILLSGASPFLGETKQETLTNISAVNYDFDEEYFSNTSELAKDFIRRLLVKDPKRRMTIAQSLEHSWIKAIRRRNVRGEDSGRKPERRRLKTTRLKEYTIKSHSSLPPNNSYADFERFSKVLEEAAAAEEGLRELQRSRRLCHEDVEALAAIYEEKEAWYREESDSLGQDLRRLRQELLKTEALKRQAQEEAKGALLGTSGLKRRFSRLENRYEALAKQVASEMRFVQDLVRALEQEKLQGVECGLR

**Q.** How did the “elution of full length GFP-ZIPK” value (GFP-ZIPK) turn out when `O=S(=O)(c1cccc2c(I)cccc12)N1CCCNCC1` [ML-7, reference compound] was run?
**A.** failed to elute

**Q.** And the pKd (PIM3-GFP)?
**A.** 6.70
